Measured values taken from PubChem BioAssay (NCI).
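Where inhibition never reached the appropriate level, the endpoint shown equals the highest concentration tested. Otherwise, values were interpolated linearly from a five-concentration, 48-hour dose response in 96-well plates. Definition used: TGI = concentration required for complete inhibition of growth.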

Experiments:
Assay in all cases: growth of human tumour cells (NCI), 48 h
[1] = system: SK-MEL-2 melanoma
[2] = system: OVCAR-3 ovarian
[3] = system: UACC-62 melanoma
[4] = system: EKVX NSCLC
[5] = system: SF-539 CNS
[6] = system: MDA-MB-231 breast
[7] = system: ACHN renal
[8] = system: CAKI-1 renal
[9] = system: CCRF-CEM leukemia
[10] = system: MOLT-4 leukemia
[11] = system: TK-10 renal
[12] = system: COLO 205 colon
[13] = system: OVCAR-4 ovarian
[14] = system: HOP-92 NSCLC
[15] = system: OVCAR-5 ovarian
[16] = system: SF-268 CNS
[17] = system: 786-0 renal
[18] = system: MALME-3M melanoma
[19] = system: IGROV1 ovarian
[20] = system: HS 578T breast
[21] = system: SK-MEL-5 melanoma
[22] = system: PC-3 prostate
[23] = system: KM12 colon
[24] = system: K-562 leukemia
[25] = system: HCT-15 colon
[26] = system: OVCAR-8 ovarian
[27] = system: NCI/ADR-RES ovarian
[28] = system: A498 renal
[29] = system: SNB-75 CNS
[30] = system: BT-549 breast
[31] = system: LOX IMVI melanoma
[32] = system: HCC-2998 colon
[33] = system: RXF 393 renal
[34] = system: UACC-257 melanoma
[35] = system: SW-620 colon
[36] = system: NCI-H522 lung
[37] = system: MDA-MB-435
[38] = system: U251 CNS
[39] = system: HT29 colon
[40] = system: DU-145 prostate
[41] = system: NCI-H226 lung
[42] = system: HCT-116 colon
[43] = system: RPMI-8226 leukemia
[44] = system: NCI-H460 lung
[45] = system: SR leukemia
[46] = system: MDA-N
[47] = system: SNB-19 CNS
[48] = system: NCI-H23 lung
[49] = system: UO-31 renal
[50] = system: M14 melanoma
[51] = system: SF-295 CNS
[52] = system: T-47D breast
[53] = system: HOP-62 NSCLC
[54] = system: SK-MEL-28 melanoma
[55] = system: SN12C renal
[56] = system: MCF7 breast
[57] = system: A549 NSCLC
[58] = system: HL-60(TB) leukemia
[59] = system: SK-OV-3 ovarian

Compound: CSC(=O)/C=C1\SS/C(=C\C(=O)SC)S1
- TGI [1]: 4.93 µM
- TGI [2]: 11.2 µM
- TGI [3]: 2.87 µM
- TGI [4]: 6.68 µM
- TGI [5]: 6.93 µM
- TGI [6]: 4.85 µM
- TGI [7]: 10.2 µM
- TGI [8]: 4.25 µM
- TGI [9]: > 100 µM
- TGI [10]: > 100 µM
- TGI [11]: 15.5 µM
- TGI [12]: 30.6 µM
- TGI [13]: > 41.2 µM
- TGI [14]: 7.87 µM
- TGI [15]: 13.7 µM
- TGI [16]: 6.72 µM
- TGI [17]: 4.03 µM
- TGI [18]: 4.6 µM
- TGI [19]: 11.6 µM
- TGI [20]: 13.8 µM
- TGI [21]: 6.79 µM
- TGI [22]: 9.32 µM
- TGI [23]: 13 µM
- TGI [24]: > 100 µM
- TGI [25]: 6.07 µM
- TGI [26]: 11.7 µM
- TGI [27]: 8.71 µM
- TGI [28]: 21.5 µM
- TGI [29]: 10.5 µM
- TGI [30]: 3.26 µM
- TGI [31]: 3.09 µM
- TGI [32]: 3.33 µM
- TGI [33]: 2.8 µM
- TGI [34]: 11.3 µM
- TGI [35]: 4.15 µM
- TGI [36]: 6.34 µM
- TGI [37]: 7.08 µM
- TGI [38]: 6.03 µM
- TGI [39]: 7.03 µM
- TGI [40]: 15.7 µM
- TGI [41]: 3.41 µM
- TGI [42]: 3.29 µM
- TGI [43]: 5.27 µM
- TGI [44]: 7.61 µM
- TGI [45]: > 100 µM
- TGI [46]: 8.37 µM
- TGI [47]: 20.7 µM
- TGI [48]: 27.6 µM
- TGI [49]: 6.89 µM
- TGI [50]: 5.24 µM
- TGI [51]: 13.7 µM
- TGI [52]: 20.6 µM
- TGI [53]: 20.4 µM
- TGI [54]: 6.34 µM
- TGI [55]: 3.79 µM
- TGI [56]: 9.19 µM
- TGI [57]: 19.6 µM

Compound: Cc1ccc(N=N/C(=N/NC(=O)c2ccccc2)c2ccc(N(CCC#N)CCC#N)cc2C)cc1
- TGI [1]: > 100 µM
- TGI [2]: > 100 µM
- TGI [3]: > 100 µM
- TGI [4]: > 100 µM
- TGI [5]: 64.7 µM
- TGI [6]: > 100 µM
- TGI [7]: > 100 µM
- TGI [8]: > 100 µM
- TGI [9]: > 100 µM
- TGI [10]: > 100 µM
- TGI [11]: > 100 µM
- TGI [12]: > 100 µM
- TGI [58]: > 100 µM
- TGI [13]: > 100 µM
- TGI [15]: > 100 µM
- TGI [16]: > 100 µM
- TGI [17]: > 100 µM
- TGI [18]: > 100 µM
- TGI [19]: > 100 µM
- TGI [20]: 46.9 µM
- TGI [21]: > 100 µM
- TGI [22]: > 100 µM
- TGI [23]: > 100 µM
- TGI [24]: > 100 µM
- TGI [25]: > 100 µM
- TGI [26]: > 100 µM
- TGI [27]: > 100 µM
- TGI [28]: 88.1 µM
- TGI [29]: > 100 µM
- TGI [30]: > 100 µM
- TGI [32]: > 100 µM
- TGI [33]: > 100 µM
- TGI [34]: > 100 µM
- TGI [59]: > 100 µM
- TGI [36]: 42.2 µM
- TGI [37]: > 100 µM
- TGI [38]: > 100 µM
- TGI [39]: 53.7 µM
- TGI [40]: > 100 µM
- TGI [41]: > 100 µM
- TGI [42]: > 100 µM
- TGI [43]: > 100 µM
- TGI [44]: > 100 µM
- TGI [45]: > 100 µM
- TGI [46]: > 100 µM
- TGI [47]: > 100 µM
- TGI [48]: > 100 µM
- TGI [49]: > 100 µM
- TGI [50]: > 100 µM
- TGI [51]: > 100 µM
- TGI [52]: > 100 µM
- TGI [53]: > 100 µM
- TGI [55]: > 100 µM
- TGI [56]: > 100 µM
- TGI [57]: > 100 µM
